Measured values reported in PubChem BioAssay (NCI).
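48-hour exposure; five concentrations; linearly interpolated endpoints. TGI marks complete inhibition of growth.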

Columns and labels:
Experiment in all cases: inhibition of tumour cell growth, NCI panel, 48 h
[1] = tested on: NCI-H460 lung
[2] = tested on: TK-10 renal
[3] = tested on: KM12 colon
[4] = tested on: SW-620 colon
[5] = tested on: U251 CNS
[6] = tested on: MDA-MB-231 breast
[7] = tested on: K-562 leukemia
[8] = tested on: 786-0 renal
[9] = tested on: IGROV1 ovarian
[10] = tested on: SK-MEL-5 melanoma
[11] = tested on: NCI-H226 lung
[12] = tested on: NCI/ADR-RES ovarian
[13] = tested on: SN12C renal
[14] = tested on: CCRF-CEM leukemia
[15] = tested on: SNB-19 CNS
[16] = tested on: MDA-MB-435
[17] = tested on: SNB-75 CNS
[18] = tested on: COLO 205 colon
[19] = tested on: SK-MEL-2 melanoma
[20] = tested on: DU-145 prostate
[21] = tested on: HT29 colon
[22] = tested on: MOLT-4 leukemia
[23] = tested on: LOX IMVI melanoma
[24] = tested on: OVCAR-3 ovarian
[25] = tested on: RXF 393 renal
[26] = tested on: M14 melanoma
[27] = tested on: HOP-62 NSCLC
[28] = tested on: SF-295 CNS
[29] = tested on: HCC-2998 colon
[30] = tested on: HCT-116 colon
[31] = tested on: SK-MEL-28 melanoma
[32] = tested on: HOP-92 NSCLC
[33] = tested on: MDA-N
[34] = tested on: SF-268 CNS
[35] = tested on: UACC-257 melanoma
[36] = tested on: MALME-3M melanoma
[37] = tested on: A549 NSCLC
[38] = tested on: HCT-15 colon
[39] = tested on: CAKI-1 renal
[40] = tested on: BT-549 breast
[41] = tested on: UO-31 renal
[42] = tested on: OVCAR-5 ovarian
[43] = tested on: MCF7 breast
[44] = tested on: NCI-H23 lung
[45] = tested on: OVCAR-4 ovarian
[46] = tested on: NCI-H522 lung
[47] = tested on: A498 renal
[48] = tested on: EKVX NSCLC
[49] = tested on: T-47D breast
[50] = tested on: HL-60(TB) leukemia
[51] = tested on: OVCAR-8 ovarian
[52] = tested on: SK-OV-3 ovarian
[53] = tested on: PC-3 prostate
[54] = tested on: ACHN renal
[55] = tested on: RPMI-8226 leukemia
[56] = tested on: UACC-62 melanoma
[57] = tested on: SF-539 CNS

CC(=O)OC1COC(n2nc(N)nc2C)C(OC(C)=O)C1OC(C)=O (stereo unspecified)
TGI [1]: > 100 µM
TGI [2]: > 100 µM
TGI [3]: > 100 µM
TGI [4]: > 100 µM
TGI [5]: > 100 µM
TGI [6]: > 100 µM
TGI [7]: > 100 µM
TGI [8]: > 100 µM
TGI [9]: > 100 µM
TGI [10]: > 100 µM
TGI [11]: > 100 µM
TGI [12]: > 100 µM
TGI [13]: > 100 µM
TGI [14]: > 100 µM
TGI [15]: > 100 µM
TGI [16]: > 100 µM
TGI [17]: > 100 µM
TGI [18]: > 100 µM
TGI [19]: > 100 µM
TGI [20]: > 100 µM
TGI [21]: > 100 µM
TGI [22]: > 100 µM
TGI [23]: > 100 µM
TGI [24]: > 100 µM
TGI [25]: > 100 µM
TGI [26]: > 100 µM
TGI [27]: > 100 µM
TGI [28]: > 100 µM
TGI [29]: > 100 µM
TGI [30]: > 100 µM
TGI [31]: > 100 µM
TGI [32]: > 100 µM
TGI [33]: > 100 µM
TGI [34]: > 100 µM
TGI [35]: > 100 µM
TGI [36]: > 100 µM
TGI [37]: > 100 µM
TGI [38]: > 100 µM
TGI [39]: > 100 µM
TGI [40]: > 100 µM
TGI [41]: > 100 µM
TGI [42]: > 100 µM
TGI [43]: > 100 µM
TGI [44]: > 100 µM
TGI [45]: > 100 µM
TGI [46]: > 100 µM
TGI [47]: > 100 µM
TGI [48]: > 100 µM
TGI [49]: > 100 µM
TGI [50]: > 100 µM
TGI [51]: > 100 µM
TGI [52]: > 100 µM
TGI [53]: > 100 µM
TGI [54]: > 100 µM
TGI [55]: > 100 µM
TGI [56]: > 100 µM

CC(=O)OCc1cc(=O)n2c([nH]c3ccccc32)c1C#N
TGI [1]: 64.8 µM
TGI [2]: > 100 µM
TGI [4]: > 100 µM
TGI [5]: > 100 µM
TGI [6]: > 100 µM
TGI [7]: > 100 µM
TGI [8]: > 100 µM
TGI [9]: > 100 µM
TGI [10]: > 100 µM
TGI [11]: > 100 µM
TGI [12]: > 100 µM
TGI [13]: > 100 µM
TGI [14]: > 100 µM
TGI [15]: > 100 µM
TGI [18]: > 100 µM
TGI [19]: > 100 µM
TGI [20]: > 100 µM
TGI [21]: > 100 µM
TGI [22]: > 100 µM
TGI [23]: > 100 µM
TGI [24]: > 100 µM
TGI [25]: > 100 µM
TGI [26]: > 100 µM
TGI [28]: > 100 µM
TGI [29]: > 100 µM
TGI [30]: > 100 µM
TGI [31]: > 100 µM
TGI [57]: > 100 µM
TGI [32]: > 100 µM
TGI [33]: > 100 µM
TGI [35]: > 100 µM
TGI [36]: > 100 µM
TGI [37]: > 100 µM
TGI [38]: > 100 µM
TGI [39]: > 100 µM
TGI [40]: > 100 µM
TGI [41]: > 100 µM
TGI [42]: > 100 µM
TGI [43]: > 100 µM
TGI [44]: > 100 µM
TGI [45]: 60.9 µM
TGI [47]: > 100 µM
TGI [48]: > 100 µM
TGI [49]: > 100 µM
TGI [50]: > 100 µM
TGI [51]: > 100 µM
TGI [52]: > 100 µM
TGI [53]: > 100 µM
TGI [54]: > 100 µM
TGI [56]: > 100 µM
